Entries after “also recorded” stand apart in the source; their conditions may differ.
Experiments:
[1] = system: whole cell CS levels in MCF-7; experiment: Whole cell cholesterol sulfate quantification, MCF-7; format: cell-based, human; conditions: for whole cell CS levels vs DMSO: MCF-7, 6.25 μM compound, 72 hours
Description: (§1) General Whole Cell Cholesterol Sulfate Quantification. 60×15 mm tissue culture dishes were seeded with MCF-7 at 2×10^6 cells/dish or T47D at 1×10^6 cells per dish, 5 mL total media volume, and allowed to adhere overnight. Compounds of interest were dissolved in DMSO. Cells were treated with 25 μL 1.25 mM compound of interest stock (6.25 μM final compound concentration, 0.5% final DMSO concentration) or DMSO for 72 hours. To harvest, media was aspirated, and cells were washed once with PBS before detaching with trypsin. Trypsin was quenched with media. Cells were centrifuged at 300 xg for 3 minutes and supernatant was discarded. Cells were resuspended in media and counted using a Countess 3 automated cell counter (Thermo Fisher Scientific). 1.5×10^6 cells were collected, washed twice with 1 mL PBS, then pelleted and stored at −80° C. until lysis. Cell pellets were resuspended in 200 μL cold 70:30 methanol:water and placed on ice. Cell suspension was sonicated on ice (30%, 10 s on, 20 s off, 1 min total) and continued to be incubated on ice for 30 minutes. Lysate was clarified by centrifugation at 14,100 xg at 4° C. for 30 minutes. 100 μL of supernatant was transferred to an empty Eppendorf tube and submitted for LC-MS/MS quantification (UIUC Metabolomics Center), along with 5 mM cholesterol sulfate sodium salt standard.
as §1, with “Time Course Whole Cell” for “General Whole Cell”, “2×10^6 cells/dish per dish,” for “2×10^6 cells/dish or T47D at 1×10^6 cells per dish,”, “DMSO for 0 (harvested immediately), 4, 8, 24, 48, or 72 hours.” for “DMSO for 72 hours.”
Whole Cell Cholesterol Sulfate Quantification with Compound Removal. 60×15 mm tissue culture dishes were seeded with MCF-7 at 2×10^6 cells/dish, 5 mL total media volume, and allowed to adhere overnight. Compounds of interest were dissolved in DMSO. Cells were treated with 25 μL 1.25 mM compound of interest stock (6.25 μM final compound concentration, 0.5% final DMSO concentration) for 0 hours (harvested immediately) or 24 hours. Media was aspirated and replaced with 5 mL fresh media, then cells were either harvested (24 hour time point) or further incubated. To harvest, media was aspirated, and cells were washed once with PBS before detaching with trypsin. Trypsin was quenched with media. Cells were centrifuged at 300 xg for 3 minutes and supernatant was discarded. Cells were resuspended in media and counted using a Countess 3 automated cell counter (Thermo Fisher Scientific). 1.5×10^6 cells were collected, washed twice with 1 mL PBS, then pelleted and stored at −80° C. until lysis. Cell pellets were resuspended in 200 μL cold 70:30 methanol:water and placed on ice. Cell suspension was sonicated on ice (30%, 10 s on, 20 s off, 1 min total) and continued to be incubated on ice for 30 minutes. Lysate was clarified by centrifugation at 14,100 xg at 4° C. for 30 minutes. […]

[2] = molecular target: SULT2B1b (Homo sapiens (Human), UniProt O00204); experiment: LC-MS/MS based in vitro assay (DHEA-sulfate formation); format: biochemical; conditions: 100 μM compound, 2 hours; mean±s.e.m., n=3
Chain of SULT2B1b (O00204 whole entry): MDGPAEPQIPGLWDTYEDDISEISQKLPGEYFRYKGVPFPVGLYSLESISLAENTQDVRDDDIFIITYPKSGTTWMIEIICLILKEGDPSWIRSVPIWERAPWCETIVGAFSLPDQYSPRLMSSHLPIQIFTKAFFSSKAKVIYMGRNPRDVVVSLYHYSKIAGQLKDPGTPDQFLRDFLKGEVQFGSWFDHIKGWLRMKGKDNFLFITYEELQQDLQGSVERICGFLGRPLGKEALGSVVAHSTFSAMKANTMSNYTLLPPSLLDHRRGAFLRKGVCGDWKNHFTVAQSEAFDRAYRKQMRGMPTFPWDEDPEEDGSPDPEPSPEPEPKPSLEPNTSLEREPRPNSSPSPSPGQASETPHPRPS
Description: LC-MS/MS Based In Vitro Assay. Stock solutions of DHEA (5 mM in DMSO) and compound of interest (5 mM in DMSO) were prepared. […] SULT2B1b was diluted to 1.5 μg/μL in protein storage buffer then down to 0.8 μg/μL in 1× activity assay buffer. 30 μL of 0.8 μg/μL SULT2B1b was added to each reaction. Reactions were incubated for 2 hours at 37° C. with shaking at 250 rpm. To quench, 30 μL reaction mix was added to 30 μL ice cold 0.5% HCl in MeCN, then centrifuged at 13,000 xg at room temperature for 3 min. 50 μL supernatant was transferred to an empty Eppendorf tube and submitted for LC-MS/MS quantification (UIUC Metabolomics Center), along with 5 mM DHEA sulfate standard. Controls: Reaction mix made with DHEA and DMSO in place of compound of interest (DHEA control). […] General LC-MS/MS Quantification Method. Both DHEAS and CS samples were analyzed by 6500 QTRAP (Sciex, Redwood City, CA) liquid chromatography-tandem mass spectrometry. […] The flow rate was 0.3 mL/min. […] The source temperature was 400° C. […] Cholesterol-sulfate and DHEA-sulfate were detected by multiple reaction monitoring (MRM) at m/z 465→97.0 and 367.0→97.0 respectively. Software Analyst 1.7.1 ([…]) was used for data acquisition and analysis.

Row | SMILES | whole cell CS levels vs DMSO [1] | inhibition at 100 µM [2] [%] | whole cell CS levels vs DMSO ([1]; listed as 2-273) | CS level rebound after compound removal ([1]; MCF-7, 6.25 μM for 24 hours, then compound-free media up to 48 hours) | time of constant treatment to significantly decreased whole cell CS levels ([1]; MCF-7, 6.25 μM, time course) [h] | treatment concentration showing a decrease in CS levels (whole cell dose response) ([1]; MCF-7, 72 hour treatment) [µM]
1 | C[C@]12CCC(=O)N(Cc3ccc(Cl)cc3)C1=CC[C@@H]1[C@@H]2C(=O)C[C@]2(C)C(=O)CC[C@@H]12 [Compound 1, (4aR,4bS,6aS,9aS,9bS)-1-(4-chlorobenzyl)-4a,6a-dimethyl-3,4,4a,6,6a,8,9,9a,9b,10-decahydro-1H-indeno[5,4-f]quinoline-2,5,7(4bH)-trione] | significantly decrease | 67.8 ± 0.5 |  |  |  | 
2 | C[C@]12CC[C@H](O)CC1=CC[C@@H]1[C@@H]2CC[C@]2(C)C(n3cnc4ccccc43)=CC[C@@H]12 [Compound 2, Galeterone, reference compound] | did decrease CS levels | 57 ± 0.7 |  |  |  | 
3 | C[C@]12CCC(=O)N(Cc3ccc(Br)cc3)C1=CC[C@@H]1[C@@H]2C(=O)C[C@]2(C)C(=O)CC[C@@H]12 [Compound 3, (4aR,4bS,6aS,9aS,9bS)-1-(4-bromobenzyl)-4a,6a-dimethyl-3,4,4a,6,6a,8,9,9a,9b,10-decahydro-1H-indeno[5,4-f]quinoline-2,5,7(4bH)-trione] | significant decrease | 72.8 ± 0.1 | significantly decrease; also recorded: significant (p=0.0003) reduction | did not rebound | ≤ 24 | ≤ 0.097

— patent US20240400606A1, “SMALL MOLECULE ACTIVATORS OF THE IMMUNE SYSTEM” (THE BOARD OF TRUSTEES OF THE UNIVERSITY OF ILLINOIS, priority 2021, published 2024)
